Values belong to the molecule of their own block, whether it stands above or below them.
How the values were obtained:
Jurkat cells [1] = assay: modulation of Compound 23-induced apoptosis in Jurkat cells; settings: compound 23 10 μM
Ramos cells [2] = assay: ratiometric fluorescence calcium imaging, Ramos cells; format: cell-based; settings: FIG. 15
[3] = test system: PLC-γ1-deficient Jurkat J.γ1 cells; assay: ratiometric fluorescence calcium imaging, J.γ1 cells; format: cell-based, human; settings: FIG. 14
Jurkat cells [4] = assay: ratiometric fluorescence calcium imaging, Jurkat cells; format: cell-based, human; settings: for intracellular calcium mobilization / time to rise in intracellular calcium: 10 μM, FIG. 10; for dose dependence of calcium mobilization: FIGS. 12 and 13; for effect on compound 23-stimulated increase in intracellular Ca2+ levels: FIG. 11
[5] = test system: J.g1 (Phospholipase C-g1 deficient Jurkat); assay: Apoptosis in J.g1 cells
[6] = test system: J.RT3-T.5 (TCR-b chain deficient Jurkat); assay: Apoptosis in J.RT3-T.5 cells
[7] = test system: PLC-deficient J.γ1 Jurkat cells; assay: cytochrome C translocation from mitochondria to cytosol, J.γ1 Jurkat; settings: HDAC inhibitors 12 or 24 hours, FIG. 9
wild type Jurkat cells = assay: cytochrome C translocation from mitochondria to cytosol, wild type Jurkat; settings: HDAC inhibitors 12 or 24 hours, FIG. 9
Ramos cells [8] = assay: apoptosis in Ramos cells; format: cell-based
Jurkat WT = assay: Apoptosis in Jurkat WT cells
[9] = test system: P116 (ZAP-70 deficient Jurkat); assay: Apoptosis in P116 cells
HDAC-1 = HDAC-1 (Homo sapiens, UniProt Q13547); assay: in vitro HDAC inhibition, HDAC-1; format: biochemical
HDAC-8 = biological target: T1, HDAC-8 (Homo sapiens, UniProt Q9BY41); assay: in vitro HDAC inhibition, HDAC-8; format: biochemical
T1 sequence (Q9BY41 1-377): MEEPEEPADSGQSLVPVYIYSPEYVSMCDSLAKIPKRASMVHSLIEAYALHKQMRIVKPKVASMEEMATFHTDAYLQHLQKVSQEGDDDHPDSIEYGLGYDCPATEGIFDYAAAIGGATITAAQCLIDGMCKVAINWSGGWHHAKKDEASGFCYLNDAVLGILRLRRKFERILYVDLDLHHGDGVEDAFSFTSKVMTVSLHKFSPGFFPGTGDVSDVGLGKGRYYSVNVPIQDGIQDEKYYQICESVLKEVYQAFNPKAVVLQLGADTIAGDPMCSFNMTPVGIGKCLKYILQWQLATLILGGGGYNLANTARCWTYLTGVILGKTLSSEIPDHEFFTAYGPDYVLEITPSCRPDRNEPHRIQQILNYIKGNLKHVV

HDAC-6 = biological target: T2, HDAC-6 (Homo sapiens, UniProt Q9UBN7); assay: in vitro HDAC inhibition, HDAC-6; format: biochemical
T2 sequence (Q9UBN7 1-1215): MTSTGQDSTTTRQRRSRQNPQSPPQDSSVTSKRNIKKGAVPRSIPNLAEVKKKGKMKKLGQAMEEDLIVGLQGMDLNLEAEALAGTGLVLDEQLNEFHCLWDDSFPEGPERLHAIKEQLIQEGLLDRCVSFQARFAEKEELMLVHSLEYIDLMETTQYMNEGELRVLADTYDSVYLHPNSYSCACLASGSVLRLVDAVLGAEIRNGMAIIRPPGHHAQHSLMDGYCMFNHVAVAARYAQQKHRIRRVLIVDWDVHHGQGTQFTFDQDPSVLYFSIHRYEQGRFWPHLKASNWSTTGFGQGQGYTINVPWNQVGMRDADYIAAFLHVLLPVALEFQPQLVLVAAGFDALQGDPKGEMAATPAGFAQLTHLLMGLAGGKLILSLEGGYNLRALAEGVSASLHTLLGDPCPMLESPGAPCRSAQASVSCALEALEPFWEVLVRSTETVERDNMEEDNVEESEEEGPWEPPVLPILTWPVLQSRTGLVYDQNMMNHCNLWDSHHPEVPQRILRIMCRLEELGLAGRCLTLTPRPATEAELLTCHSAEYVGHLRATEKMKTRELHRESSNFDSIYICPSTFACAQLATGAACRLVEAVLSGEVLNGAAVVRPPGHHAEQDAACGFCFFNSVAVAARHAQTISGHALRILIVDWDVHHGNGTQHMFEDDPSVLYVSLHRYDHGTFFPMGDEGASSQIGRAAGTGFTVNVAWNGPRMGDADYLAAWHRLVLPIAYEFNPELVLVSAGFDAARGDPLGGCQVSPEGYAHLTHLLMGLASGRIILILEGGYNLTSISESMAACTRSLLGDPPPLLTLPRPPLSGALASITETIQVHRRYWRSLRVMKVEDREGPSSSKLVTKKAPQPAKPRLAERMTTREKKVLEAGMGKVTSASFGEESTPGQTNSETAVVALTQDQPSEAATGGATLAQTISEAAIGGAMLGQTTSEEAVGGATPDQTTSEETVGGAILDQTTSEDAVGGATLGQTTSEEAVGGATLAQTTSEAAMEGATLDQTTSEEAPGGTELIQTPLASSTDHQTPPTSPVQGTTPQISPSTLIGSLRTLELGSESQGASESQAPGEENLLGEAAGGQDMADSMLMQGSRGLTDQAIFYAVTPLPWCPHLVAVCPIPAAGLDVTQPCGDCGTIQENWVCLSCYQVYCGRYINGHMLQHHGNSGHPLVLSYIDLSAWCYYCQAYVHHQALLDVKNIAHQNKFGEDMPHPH

HDAC-2 = HDAC-2 (Homo sapiens, UniProt Q92769); assay: in vitro HDAC inhibition, HDAC-2; format: biochemical
HDAC-3 = HDAC-3 (Homo sapiens, UniProt O15379); assay: in vitro HDAC inhibition, HDAC-3; format: biochemical
HDAC-10 = biological target: T3, HDAC-10 (Homo sapiens, UniProt Q969S8); assay: in vitro HDAC inhibition, HDAC-10; format: biochemical
T3 sequence (Q969S8 1-669): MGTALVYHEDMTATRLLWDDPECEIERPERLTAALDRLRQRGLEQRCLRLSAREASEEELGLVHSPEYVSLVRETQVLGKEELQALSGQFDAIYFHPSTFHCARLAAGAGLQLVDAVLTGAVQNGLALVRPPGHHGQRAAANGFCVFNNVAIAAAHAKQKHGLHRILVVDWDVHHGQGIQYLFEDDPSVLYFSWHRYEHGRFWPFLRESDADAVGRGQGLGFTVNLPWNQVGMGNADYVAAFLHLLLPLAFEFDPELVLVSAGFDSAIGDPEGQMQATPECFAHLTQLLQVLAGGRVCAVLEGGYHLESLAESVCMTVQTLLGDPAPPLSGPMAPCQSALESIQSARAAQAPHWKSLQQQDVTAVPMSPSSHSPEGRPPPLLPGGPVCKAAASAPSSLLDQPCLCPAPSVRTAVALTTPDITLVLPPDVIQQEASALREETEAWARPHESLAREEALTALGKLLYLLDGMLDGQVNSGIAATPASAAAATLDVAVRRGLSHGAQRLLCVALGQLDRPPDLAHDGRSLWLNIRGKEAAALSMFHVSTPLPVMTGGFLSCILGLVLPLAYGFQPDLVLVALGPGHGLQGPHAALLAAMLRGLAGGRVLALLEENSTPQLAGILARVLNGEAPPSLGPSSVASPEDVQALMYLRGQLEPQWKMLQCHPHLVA

Sequence of HDAC-2 (Q92769 whole entry): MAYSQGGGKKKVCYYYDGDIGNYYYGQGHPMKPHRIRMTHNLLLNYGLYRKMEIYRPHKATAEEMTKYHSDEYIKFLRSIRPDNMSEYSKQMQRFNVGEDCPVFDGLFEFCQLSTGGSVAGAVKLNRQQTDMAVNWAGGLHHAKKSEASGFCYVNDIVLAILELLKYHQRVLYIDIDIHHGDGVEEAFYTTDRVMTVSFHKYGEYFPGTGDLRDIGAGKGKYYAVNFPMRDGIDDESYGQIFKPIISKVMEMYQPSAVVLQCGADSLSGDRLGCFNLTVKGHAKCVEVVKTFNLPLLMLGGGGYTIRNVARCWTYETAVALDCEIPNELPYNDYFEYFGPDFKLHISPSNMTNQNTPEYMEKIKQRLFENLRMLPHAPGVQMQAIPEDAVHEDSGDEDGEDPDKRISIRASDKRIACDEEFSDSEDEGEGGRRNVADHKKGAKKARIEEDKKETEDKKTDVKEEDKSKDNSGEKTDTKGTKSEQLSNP
Sequence of HDAC-1 (Q13547 whole entry): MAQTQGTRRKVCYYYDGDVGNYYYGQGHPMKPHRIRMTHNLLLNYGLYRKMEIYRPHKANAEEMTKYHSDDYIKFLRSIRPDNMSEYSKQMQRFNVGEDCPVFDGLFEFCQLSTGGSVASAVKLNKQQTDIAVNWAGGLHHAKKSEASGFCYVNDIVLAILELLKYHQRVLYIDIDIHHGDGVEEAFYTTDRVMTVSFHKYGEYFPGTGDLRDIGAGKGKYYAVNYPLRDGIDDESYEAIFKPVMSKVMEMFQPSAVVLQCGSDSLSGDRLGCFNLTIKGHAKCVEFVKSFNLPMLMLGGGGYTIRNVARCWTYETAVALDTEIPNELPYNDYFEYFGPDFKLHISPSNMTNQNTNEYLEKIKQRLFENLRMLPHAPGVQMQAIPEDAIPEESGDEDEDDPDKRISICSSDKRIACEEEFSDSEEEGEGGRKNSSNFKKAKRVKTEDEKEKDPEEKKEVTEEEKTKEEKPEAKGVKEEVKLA
Sequence of HDAC-3 (O15379 whole entry): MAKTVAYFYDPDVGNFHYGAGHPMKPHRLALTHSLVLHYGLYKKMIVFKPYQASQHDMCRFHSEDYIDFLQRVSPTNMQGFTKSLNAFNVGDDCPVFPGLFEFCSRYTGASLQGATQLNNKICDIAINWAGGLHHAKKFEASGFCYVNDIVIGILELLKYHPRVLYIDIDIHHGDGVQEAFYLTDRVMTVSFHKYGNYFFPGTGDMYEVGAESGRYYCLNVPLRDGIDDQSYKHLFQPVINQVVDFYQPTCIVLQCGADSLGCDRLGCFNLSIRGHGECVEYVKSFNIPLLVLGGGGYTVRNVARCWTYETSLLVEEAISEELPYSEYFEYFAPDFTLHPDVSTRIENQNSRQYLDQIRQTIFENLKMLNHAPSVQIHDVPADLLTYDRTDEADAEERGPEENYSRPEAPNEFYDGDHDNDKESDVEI
Sequence of HDAC-3 (Q9Y618 395-489 partner limits assumed): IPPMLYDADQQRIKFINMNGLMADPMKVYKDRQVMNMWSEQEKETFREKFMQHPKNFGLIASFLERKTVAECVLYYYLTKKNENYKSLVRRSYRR

Molecule: CC(=O)OCOC(=O)CN(CC(=O)OCOC(C)=O)c1ccccc1OCCOc1ccccc1N(CC(=O)OCOC(C)=O)CC(=O)OCOC(C)=O [BAPTA-AM]
effect on Compound 23-induced apoptosis (Jurkat cells [1]; BAPTA-AM 0.5 μM, FIG. 8(B)): diminished apoptosis

Molecule: CN(C)Cc1c(C(=O)NCCOc2ccc(C(=O)NO)cc2)oc2ccccc12 [CRA-024781]
intracellular calcium levels (Ramos cells [2]): robust increase | effect on intracellular Ca2+ [3]: completely abolished | intracellular calcium mobilization (Jurkat cells [4]): sustained rise in intracellular calcium | time to rise in intracellular calcium (Jurkat cells [4]): approximately 1 minute | dose dependence of calcium mobilization (Jurkat cells [4]): dose dependent

Molecule: COc1ccc(Cn2ccc3ccc(C(=O)NO)cc32)cc1 [Compound 23, 1-(4-methoxy-phenylmethyl)-1H-indole-6-carboxylic acid hydroxyamide]
intracellular calcium levels (Ramos cells [2]): did not alter resting calcium levels | Apoptosis at 5 μM [5]: 12% | Apoptosis at 5 μM [6]: 67% | cytochrome C translocation from mitochondria to cytosol [7]: failed to alter the localization | cytochrome C translocation from mitochondria to cytosol (wild type Jurkat cells): induced translocation | effect on intracellular Ca2+ [3]: completely abolished | induction of apoptosis (Ramos cells [8]): failure to induce apoptosis | Apoptosis at 5 μM (Jurkat WT): 43% | Apoptosis at 5 μM [9]: 82% | intracellular calcium mobilization (Jurkat cells [4]): sustained rise in intracellular calcium | time to rise in intracellular calcium (Jurkat cells [4]): approximately 1 minute | dose dependence of calcium mobilization (Jurkat cells [4]): dose dependent

IC50 (HDAC-1): 2600 nM | IC50 (HDAC-8): 24 nM | HDAC8 IC50 fold lower than the next lowest HDAC target IC50 (HDAC-8; vs HDACs 1, 2, 3, 6, 10): ~15 fold | IC50 (HDAC-6): 360 nM | IC50 (HDAC-2): 23000 nM | IC50 (HDAC-3): 1500 nM | IC50 (HDAC-10): 5300 nM
Molecule: Cn1cc(Cc2ccc(F)cc2)c2cc(C(=O)NO)ccc21 [Compound 33, 1-methyl-3-(4-fluoro-phenylmethyl)-1H-indole-5-carboxylic acid hydroxyamide]

Molecule: COc1ccc2c(c1)CC[C@@H]1[C@@H]2CC[C@]2(C)[C@@H](NCCCCCCN3C(=O)C=CC3=O)CC[C@@H]12 [Compound U-73122]
effect on Compound 23-induced apoptosis (Jurkat cells [1]; FIG. 7): inhibited Compound 23-induced apoptosis in a dose-dependent manner | effect on compound 23-stimulated increase in intracellular Ca2+ levels (Jurkat cells [4]): strongly inhibited

Molecule: COc1ccc2c(c1)CC[C@@H]1[C@@H]2CC[C@]2(C)[C@@H](NCCCCCCN3C(=O)CCC3=O)CC[C@@H]12 [Compound U-73343]
effect on Compound 23-induced apoptosis (Jurkat cells [1]; FIG. 7): failed to block | effect on compound 23-stimulated increase in intracellular Ca2+ levels (Jurkat cells [4]): not

Molecule: C/C=C(/C)C(=O)O[C@H]1C(C)=C2[C@H]([C@@H]1OC(=O)CCCCCCC)[C@@](C)(OC(C)=O)C[C@H](OC(=O)CCC)[C@@]1(O)[C@H]2OC(=O)[C@@]1(C)O [thapsigargin]
effect on Compound 23-induced apoptosis (Jurkat cells [1]; thapsigargin 0.2 μM, FIG. 8(A)): enhanced apoptosis

B1: FasL: a pro-apoptotic protein (protein, UniProt P48023 130-281, looked up)
Tumor necrosis factor ligand …: QIGHPSPPPEKKELRKVAHLTGKSNSRSMPLEWEDTYGIVLLSGVKYKKGGLVINETGLYFVYSKVYFRGQSCNNLPLSHKVYMRNSKYPQDLVMMEGKMMSYCTTGQMWARSSYLGAVFNLTSADHLYVNVSELSLVNFEESQTFFGLYKL
cytochrome C translocation from mitochondria to cytosol [7]: effectively induced translocation | cytochrome C translocation from mitochondria to cytosol (wild type Jurkat cells): effectively induced translocation

Source: patent US7820711B2, “Uses of selective inhibitors of HDAC8 for treatment of T-cell proliferative disorders” (Pharmacyclics Inc., priority 2006, dated 2010)
